Test results published in patent US6921848B2, “Genes involved in brassinosteroid hormone action in plants” (The Salk Institute for Biological Studies, priority 2001, dated 2005).

Columns and labels:
[1] = system: Arabidopsis plants; assay: Brassinazole application to Arabidopsis plants (mutant screen); type: in vivo, Arabidopsis thaliana; details: EMS mutagenized Arabidopsis plants, most plants
Experimental: EMS mutagenized Arabidopsis seeds were grown into plants that were then subjected to a suppressor screen for mutants insensitive to the brassinosteroid pathway inhibitor brassinazole. […] The mutant protein is herein referred to as bzr1-D (SEQ ID NO. 7).
(§1) The mutagenized plants were put through a screening procedure based on the use of brassinazole, a triazole-type brassinosteroid biosynthesis inhibitor (Asami, et al., Plant Physiol. 123: 93, 2000).

[2] = system: Arabidopsis plants; details: normal Arabidopsis plants; cited from earlier work
[3] = system: bzr1-D mutant; assay: Brassinazole sensitivity of the bzr1-D mutant; type: in vivo, Arabidopsis thaliana
From the text: as §1
The dark-grown bzr1-D mutant is insensitive to brassinazole inhibition of hypocotyl elongation. The bzr1-D mutant has a curly hypocotyl similar to that of a seedling grown on medium containing brassinosteroids.

SMILES: CC(O)(c1ccccc1)C(Cc1ccc(Cl)cc1)n1cncn1 (stereo not shown) [brassinazole]
- Phenotype of plants treated with brassinazole [1]: stunted
- Effects of brassinazole application [2]: dwarfism, altered leaf morphology, darker greening of leaves, and decreased hypocotyl length
- Bassinazole sensitivity ([3]; dark-grown): insensitive
- Bassinazole sensitivity ([3]; light-grown): partially sensitive
